Legend:
[1] = Kinetic Turbidimetric Aqueous Solubility; assay type: physicochemical; conditions: aqueous buffer, kinetic from dmso stock, PBS buffer, room temperature
Description: Kinetic Turbidimetric Aqueous Solubility at room temperature for 5 min. Test compound was diluted in PBS buffer to give a range of concentrations (typically 0.4, 2, 4, 20, 40, 100, and 200 μM, final DMSO concentration 2%) and incubated at room temperature for 5 min. Absorbance was measured at a wavelength of 620 nm and the solubility was estimated from the concentration of test compound that produces an increase in absorbance above the vehicle control (i.e., […]). Data was analyzed by fitting a four parameter sigmoidal function to the measured and normalized absorbances and AUC calculation providing access to Log S (decadic logarithm of the solubility).

[2] = tested on: P. aeruginosa pyocyanin production; assay: Pyocyanin assay; assay type: cell-based; conditions: Pseudomonas aeruginosa, PA14, 16 h, read-out: IC50-value towards pyocyanin production, PA14 in PPGAS medium, 16 h
Description: Inhibition of P. aeruginosa pyocyanin production by compounds was determined photometrically as described before. In short, an overnight culture of PA14 in PPGAS medium was washed, diluted in medium to a start OD600 of 0.02, and incubated for 16 h (37° C., 200 rpm, relative humidity 75%) in the presence of test compounds. Then, cultures were extracted with chloroform and re-extracted with 0.2 M HCl. Protonated red colored pyocyanin was determined by measuring OD520 and normalizing to OD600.

PqsR = molecular target: T1, PqsR (Pseudomonas aeruginosa, UniProt Q9I4X0); assay: PqsR inverse agonistic activity, reporter gene assay in E. coli; assay type: cell-based
T1 construct: expressed in transfected cells; host or cells: Escherichia coli DH5a carrying pEAL08-2
Description: Inhibition of pqsR-dependent gene expression of test compounds was determined in an E. coli based-galactosidase reporter gene assay. Escherichia coli DH5a was transfected with pEAL08-2 plasmid encoding pqsR under control of promoter tac and β-galactosidase reporter gene lacZ under control of promoter pqsA. Antagonistic effects of compounds were evaluated in the presence of/in competition to 50 nM PQS. A positive control was used to ensure the reliability of individual assays. First, PQS was diluted in methanol and added to the wells of a glass coated 96-deep-well plate, and the solvent was evaporated. Then, compounds were added in 5 μL DMSO to final concentrations of 0.001-10 μM. Overnight cultures of E. coli DH5a×pEAL08-2 were diluted 1:100 in LB medium with ampicillin (50 μg/ml) and incubated at 37° C. with shaking until it reached an OD600 of 0.2. Finally, 995 μL of culture was added to each well and the β-galactosidase activity was determined by ortho-nitrophenyl-β-galactoside conversion in permeabilized cells after a 2.5 h incubation period (37° C., 180 rpm). OD600, OD420, and OD550 were measured using POLARstar Omega (BMG Labtech, Ortenberg, Germany), and the activity was expressed as ratio of the slope of B-galactosidase activity between basal control (no PQS) and solvent control. IC50 values of antagonists were determined by variation of the concentration of the test compounds.

T1 sequence (Q9I4X0 whole entry): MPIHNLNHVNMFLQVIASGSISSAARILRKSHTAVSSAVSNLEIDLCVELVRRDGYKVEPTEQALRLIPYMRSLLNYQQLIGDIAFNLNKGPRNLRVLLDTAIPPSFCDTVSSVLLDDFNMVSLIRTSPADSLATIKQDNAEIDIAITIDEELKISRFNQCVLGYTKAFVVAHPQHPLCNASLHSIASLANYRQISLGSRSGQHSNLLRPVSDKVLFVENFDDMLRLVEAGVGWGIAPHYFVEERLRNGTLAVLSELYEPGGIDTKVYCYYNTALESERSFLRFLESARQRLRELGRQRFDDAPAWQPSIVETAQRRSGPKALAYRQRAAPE

Structure (SMILES) | solubility at 5 min [1] [µM] | IC50 [2] [nM] | IC50 (PqsR) [nM]
Fc1cccc(Nc2cc(F)c3[nH]c(CSc4ccnc(C(F)(F)F)c4)nc3c2)c1 [Compound 57] | > 10 | ≤ 100 | –
Fc1ccccc1Nc1ccc(-n2cc(CNc3ccnc(C(F)(F)F)c3)nn2)cc1 [Compound 01] | > 50 | 201 to 500 | ≤ 50
Nc1cccc(-c2ncc(CNc3cc(Cl)nc(C(F)(F)F)c3)cn2)c1 [Compound 10] | ≥ 100 | 501 to 1000 | –
Fc1ccc(Nc2cccc(-n3cc(CNc4ccnc(C(F)(F)F)c4)nn3)c2)cc1 [Compound 05] | > 25 | 201 to 500 | ≤ 50
Fc1cc(Nc2ccccc2)cc2nc(CSc3ccnc(C(F)(F)F)c3)[nH]c12 [Compound 56] | > 25 | ≤ 100 | ≤ 50
Nc1cc(SCc2nc3cc(Nc4cccc(F)c4)ccc3[nH]2)cc(C(F)(F)F)n1 [Compound 24] | > 10 | ≤ 100 | –
COc1cc(F)cc(Nc2ccc3[nH]c(CSc4ccnc(C(F)(F)F)c4)nc3c2)c1 [Compound 54] | > 25 | 201 to 500 | –
Nc1cc(SCc2nc3cc(Nc4ccccc4)ccc3[nH]2)cc(C(F)(F)F)n1 [Compound 13] | > 10 | 101 to 200 | –
FC(F)(F)c1cc(NCc2cn(-c3cccc(Nc4ccccc4)c3)nn2)ccn1 [Compound 02] | > 10 | ≤ 100 | ≤ 50
FC(F)(F)c1cc(SCc2nc3cc(Nc4ccccc4Cl)ccc3[nH]2)ccn1 [Compound 27] | – | ≤ 100 | –
Fc1cc(C(F)(F)F)ccc1Nc1ccc2[nH]c(CSc3ccnc(C(F)(F)F)c3)nc2c1 [Compound 49] | > 25 | 101 to 200 | –
Fc1cc(F)cc(Nc2ccc3[nH]c(CSc4ccnc(C(F)(F)F)c4)nc3c2)c1 [Compound 43] | > 25 | – | –
FC(F)(F)Oc1ccccc1Nc1ccc2[nH]c(CSc3ccnc(C(F)(F)F)c3)nc2c1 [Compound 38] | – | 201 to 500 | –
Fc1cccc(Nc2ccc3[nH]c(CSc4ccnc(C(F)(F)F)c4)nc3c2)c1 [Compound 23] | > 10 | ≤ 100 | –
Nc1cc(-c2ncc(CNc3cc(Cl)nc(C(F)(F)F)c3)cn2)ccc1Cl [Compound 11] | > 25 | 501 to 1000 | –
COc1cccc(Nc2ccc3[nH]c(CSc4ccnc(C(F)(F)F)c4)nc3c2)c1 [Compound 33] | > 10 | 101 to 200 | –
Fc1cc(Nc2cccnc2)cc2nc(CSc3ccnc(C(F)(F)F)c3)[nH]c12 [Compound 58] | > 50 | 201 to 500 | –
FC(F)(F)c1cc(SCc2nc3cc(Nc4cccc(Cl)c4)ccc3[nH]2)ccn1 [Compound 28] | > 10 | – | –
FC(F)(F)c1cc(OCc2nc3cc(Nc4ccccc4Cl)ccc3[nH]2)ccn1 [Compound 65] | – | 201 to 500 | –
Fc1ccccc1Nc1ccc2[nH]c(CSc3ccnc(C(F)(F)F)c3)nc2c1 [Compound 22] | > 25 | – | –
FC(F)(F)c1cc(SCc2nc3cc(Nc4ccccn4)ccc3[nH]2)ccn1 [Compound 18] | > 50 | 201 to 500 | –
Cc1ccc(Nc2ccc3[nH]c(CSc4ccnc(C(F)(F)F)c4)nc3c2)nc1 [Compound 40] | > 25 | – | –
COc1ccc(Nc2ccc3[nH]c(CSc4ccnc(C(F)(F)F)c4)nc3c2)cc1 [Compound 34] | > 25 | – | 51 to 250
Fc1c(Nc2ccc3[nH]c(CSc4ccnc(C(F)(F)F)c4)nc3c2)cccc1C(F)(F)F [Compound 48] | – | 101 to 200 | –
COc1ccc(Nc2ccc3[nH]c(CSc4ccnc(C(F)(F)F)c4)nc3c2)cc1F [Compound 53] | > 25 | – | –
FC(F)(F)c1cc(SCc2nc3cc(Nc4cccnc4)ccc3[nH]2)ccn1 [Compound 19] | ≥ 100 | 501 to 1000 | –
Nc1cc(SCc2nc3cc(Nc4ccccc4)ccc3[nH]2)nc(C(F)(F)F)n1 [Compound 14] | > 25 | 101 to 200 | ≤ 50

Structure (SMILES) | solubility at 5 min [1] [µM] | IC50 [2] [nM] | IC50 (PqsR) [nM]
Fc1cccc(Nc2ccc3[nH]c(CSc4ccnc(C(F)(F)F)c4)nc3c2)c1F [Compound 46] | > 10 | 201 to 500 | 51 to 250
FC(F)(F)c1cc(SCc2nc3cc(NC4CCCCC4)ccc3[nH]2)ccn1 [Compound 17] | – | 501 to 1000 | 51 to 250
Cc1cc(Nc2ccccc2)cc2nc(CSc3ccnc(C(F)(F)F)c3)[nH]c12 [Compound 59] | > 10 | 101 to 200 | ≤ 50
Cc1c(F)cc(Nc2ccc3[nH]c(CSc4ccnc(C(F)(F)F)c4)nc3c2)cc1F [Compound 55] | > 10 | 101 to 200 | –
Fc1cncc(Nc2ccc3[nH]c(CSc4ccnc(C(F)(F)F)c4)nc3c2)c1 [Compound 41] | > 50 | 201 to 500 | –
Fc1ccccc1Nc1ccc2[nH]c(COc3ccnc(C(F)(F)F)c3)nc2c1 [Compound 63] | > 10 | – | –
Fc1cccc(Nc2ccc3[nH]c(COc4ccnc(C(F)(F)F)c4)nc3c2)c1 [Compound 64] | > 25 | 201 to 500 | –
Cc1cccc(Nc2ccc3[nH]c(CSc4ccnc(C(F)(F)F)c4)nc3c2)c1 [Compound 30] | > 10 | 101 to 200 | –
Cc1ccc(Nc2ccc3[nH]c(CSc4ccnc(C(F)(F)F)c4)nc3c2)cc1F [Compound 51] | – | ≤ 100 | –
FC(F)(F)c1cc(SCc2nc3ccc(Nc4ccccc4)cc3o2)ccn1 [Compound 15] | – | 201 to 500 | 51 to 250
Fc1ccc(F)c(Nc2cccc(-n3cc(CNc4ccnc(C(F)(F)F)c4)nn3)c2)c1 [Compound 06] | > 10 | 101 to 200 | –
FC(F)(F)c1cc(SCc2nc3ccc(Nc4ccccc4)cc3s2)ccn1 [Compound 16] | – | 501 to 1000 | 51 to 250
Nc1cc(SCc2nc3cc(Nc4cccnc4)ccc3[nH]2)cc(C(F)(F)F)n1 [Compound 20] | > 25 | 201 to 500 | –
Fc1ccc(Nc2ccc3[nH]c(CSc4ccnc(C(F)(F)F)c4)nc3c2)cc1 [Compound 26] | > 25 | – | –
Fc1cccc(F)c1Nc1ccc2[nH]c(CSc3ccnc(C(F)(F)F)c3)nc2c1 [Compound 42] | > 25 | 101 to 200 | ≤ 50
FC(F)(F)c1cc(SCc2nc3cc(Cc4ccccc4)ccc3[nH]2)ccn1 [Compound 12] | > 25 | 201 to 500 | ≤ 50
Fc1ccc(Nc2ccc3[nH]c(CSc4ccnc(C(F)(F)F)c4)nc3c2)cc1F [Compound 47] | > 10 | ≤ 100 | –
Fc1ccc(F)c(Nc2cccc(-n3cc(CNc4cc(Cl)nc(C(F)(F)F)c4)nn3)c2)c1 [Compound 07] | > 25 | 101 to 200 | –
Fc1cccc(Nc2cccc(-n3cc(CNc4ccnc(C(F)(F)F)c4)nn3)c2)c1 [Compound 03] | > 10 | 101 to 200 | –
Fc1ccc(C(F)(F)F)cc1Nc1ccc2[nH]c(CSc3ccnc(C(F)(F)F)c3)nc2c1 [Compound 50] | – | 201 to 500 | –
FC(F)(F)c1cc(NCc2nc3cc(Nc4ccccc4)ccc3[nH]2)ccn1 [Compound 60] | ≥ 100 | 201 to 500 | –
NC(=O)c1ccccc1Nc1ccc2[nH]c(CSc3ccnc(C(F)(F)F)c3)nc2c1 [Compound 35] | > 50 | 101 to 200 | –
Cc1ccc(Nc2ccc3[nH]c(CSc4ccnc(C(F)(F)F)c4)nc3c2)cc1 [Compound 31] | > 10 | 101 to 200 | –
Fc1cccc(Nc2ccc3[nH]c(CNc4ccnc(C(F)(F)F)c4)nc3c2)c1 [Compound 61] | ≥ 100 | ≤ 100 | ≤ 50
Fc1ccc(F)c(Nc2ccc3[nH]c(CSc4ccnc(C(F)(F)F)c4)nc3c2)c1 [Compound 44] | > 25 | – | –
Cc1ccccc1Nc1ccc2[nH]c(CSc3ccnc(C(F)(F)F)c3)nc2c1 [Compound 29] | – | 101 to 200 | –
